The subject of one series is Influenza virus B. Briefly: Virus-induced cytopathicity, influenza B in MDCK cells. The series is classed as cell-based. Conditions: unidentified influenza virus, read-out: EC50 Influenza virus B.
The next series relates to RSV. Briefly: Virus-induced cytopathicity, RSV in HeLa cells. It counts as cell-based. The conditions noted are these: human respiratory syncytial virus, read-out: EC50 RSV. For orientation: Damage to the host cells serves as the signal in cytopathic effect assays.
The next series relates to Reovirus-1. The experiment in a line: Virus-induced cytopathicity, reovirus-1 in Vero cells. It counts as cell-based. The conditions noted are these: read-out: EC50 Reovirus-1.
The subject of a further series is Influenza virus (AH3N2). The experiment in a line: Virus-induced cytopathicity, influenza A H3N2 in MDCK cells. The series is classed as cell-based. The conditions noted are these: unidentified influenza virus, read-out: EC50 Influenza virus (AH3N2).
The test system of another series is HeLa. Conditions: HeLa cells, microscopically visible alteration of cell morphology.
Another series has as its system Vero. Conditions: Vero cells, microscopically visible alteration of cell morphology.
In another series the test system is Parainfluenza-3 virus. Briefly: Virus-induced cytopathicity, parainfluenza-3 virus in Vero cells. Conditions: read-out: EC50 Parainfluenza-3 virus. The series is classed as cell-based.
The subject of another series is HEL. Conditions: HEL cells, microscopically visible alteration of cell morphology.
A further series concerns MDCK. Conditions: MDCK cells, microscopically visible alteration of cell morphology.
A further series relates to VZV (OKA & 07/1). The experiment in a line: VZV plaque formation assay in HEL cells. The series is classed as cell-based, varicella-zoster virus. The conditions noted are these: Human alphaherpesvirus 3, HEL, 120 h, read-out: EC50 VZV (OKA & 07/1).

Take `NC(=O)c1ncn([C@@H]2O[C@H](CO)[C@@H](O)[C@H]2O)n1` [Ribavirin]: the EC50 in the series on Influenza virus B is 4.5 to 9 µM; with RSV it was 10 µM; with Reovirus-1, over 250 µM; in the series with Influenza virus (AH3N2), 5.1 to 9 µM.
For `Nc1nc2c(sc3ncn([C@H]4C[C@H](O)[C@@H](CO)O4)c32)c(=O)[nH]1` [Compound 5, 1-[(5-Aminoimidazo[4′,5′:4,5]thieno[3,2-d]pyrimidin-3-yl-7-one)]-β-D-2′-deoxyribofuranose], the “MCC (minimal cytotoxic concentration) HeLa” value in the series with HeLa was 100 µM. Besides, the “MCC (minimal cytotoxic concentration) Vero” value with Vero amounted to 100 µM. For the same compound, the EC50 with Reovirus-1 was over 100 µM; in the series on Parainfluenza-3 virus, over 100 µM; in the series on VZV (OKA & 07/1), 71.3 to 100 µM. The “MCC (minimal cytotoxic concentration) HEL” value in the series with HEL was over 100 µM. Besides, the “MCC (minimal cytotoxic concentration) MDCK” value in the series on MDCK is reported as 0.8 µM.
In the case of `Nc1ncnc2c1sc1ncn([C@H]3C[C@H](O)[C@@H](CO)O3)c12` [Compound 6, 1-[(7-aminoimidazo[4′,5′:4,5]thieno[3,2-d]pyrimidin-3-yl)]-β-D-2′-deoxyribofuranose], the “MCC (minimal cytotoxic concentration) HeLa” value with HeLa is over 100 µM. In the series with Vero, the “MCC (minimal cytotoxic concentration) Vero” value is on record as over 100 µM. Besides, the EC50 in the series on Parainfluenza-3 virus was over 100 µM. Moreover, in the series on HEL, the “MCC (minimal cytotoxic concentration) HEL” value was at least 20 µM. The “MCC (minimal cytotoxic concentration) MDCK” value in the series on MDCK came to 20 µM.
